Reference: patent US7014863B2, “Additive for an animal feed” (priority 1999, dated 2006)

How the values were obtained:
[1] = test system: Clostridium perfringens; assay type: in vivo, chickens; details: inferred from FIG. 3 and common knowledge
[2] = test system: Clostridium perfringens; details: general common knowledge in the art; cited from earlier work

C[N+](C)(C)CC(=O)O [betaine]
effectiveness against an infection of C. perfringens [1]: does not result in the Clostridium infection being effectively treated
effectiveness against a C. perfringens challenge [2]: not effective
